Results on three compounds are retold here after ChEMBL document CHEMBL1759971, “Substituted phenyl triazoles as selective inhibitors of 11β-Hydroxysteroid Dehydrogenase Type 1” (Bioorg Med Chem Lett, 2011).

The nature of series [1]: Oral bioavailability in C57BL/6 mouse. The class given is ADME, organism-based. As to conditions: in vivo.
In series [2] the target is T1, Nuclear receptor subfamily 1 group I member 2 (Homo sapiens, UniProt O75469).
T1 sequence (O75469 whole entry): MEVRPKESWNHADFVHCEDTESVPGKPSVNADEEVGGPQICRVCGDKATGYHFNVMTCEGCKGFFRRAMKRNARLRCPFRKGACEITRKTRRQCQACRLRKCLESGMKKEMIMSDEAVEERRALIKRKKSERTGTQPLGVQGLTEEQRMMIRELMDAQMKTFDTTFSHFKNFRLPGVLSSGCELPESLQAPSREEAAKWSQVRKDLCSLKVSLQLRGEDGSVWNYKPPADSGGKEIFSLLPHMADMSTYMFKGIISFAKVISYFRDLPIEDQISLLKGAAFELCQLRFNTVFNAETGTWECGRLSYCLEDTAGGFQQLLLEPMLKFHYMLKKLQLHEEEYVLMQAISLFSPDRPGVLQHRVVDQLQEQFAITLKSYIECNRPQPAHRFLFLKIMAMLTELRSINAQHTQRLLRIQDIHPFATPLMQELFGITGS
The series is described as follows: Agonist activity at PXR at 10 uM. The class given is functional.

Series [3] addresses T2, 11-beta-hydroxysteroid dehydrogenase type 2 (Homo sapiens, UniProt P80365).
T2 sequence (P80365 whole entry): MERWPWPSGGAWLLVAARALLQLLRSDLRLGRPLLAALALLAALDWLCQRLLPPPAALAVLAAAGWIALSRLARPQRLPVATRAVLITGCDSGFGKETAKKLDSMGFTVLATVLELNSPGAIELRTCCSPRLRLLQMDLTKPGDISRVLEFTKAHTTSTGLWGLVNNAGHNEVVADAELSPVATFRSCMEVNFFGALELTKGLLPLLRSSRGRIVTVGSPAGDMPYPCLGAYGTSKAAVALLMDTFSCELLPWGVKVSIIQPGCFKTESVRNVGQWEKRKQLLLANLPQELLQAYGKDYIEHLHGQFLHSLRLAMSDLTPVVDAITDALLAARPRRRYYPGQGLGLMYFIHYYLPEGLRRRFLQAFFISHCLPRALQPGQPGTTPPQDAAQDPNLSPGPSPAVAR
The series is described as follows: Inhibition of human 11beta-HSD2.

The target of series [4] is 11-beta-hydroxysteroid dehydrogenase 1 (Homo sapiens, UniProt P28845). The series can be described thus: Inhibition of human 11beta-HSD1 expressed in CHO-K1 cells assessed as conversion of [3H]cortisone to [3H]cortisol by scintillation counting. The class given is cell-based.
Series [5] has as its system Mus musculus. The series can be described thus: Inhibition of 11beta-HSD1 in ICR mouse assessed as conversion of [3H]cortisone to [3H]cortisol at 10 mg/kg, po after 16 hrs by scintillation counting. The class given is functional.
Series [6] deals with Mus musculus. The series can be described thus: Inhibition of 11beta-HSD1 in ICR mouse assessed as conversion of [3H]cortisone to [3H]cortisol at 10 mg/kg, po after 4 hrs by scintillation counting. It counts as functional.
For series [7], the target named is T3, 11-beta-hydroxysteroid dehydrogenase type 2 (Mus musculus, UniProt P51661).
T3 sequence (P51661 whole entry): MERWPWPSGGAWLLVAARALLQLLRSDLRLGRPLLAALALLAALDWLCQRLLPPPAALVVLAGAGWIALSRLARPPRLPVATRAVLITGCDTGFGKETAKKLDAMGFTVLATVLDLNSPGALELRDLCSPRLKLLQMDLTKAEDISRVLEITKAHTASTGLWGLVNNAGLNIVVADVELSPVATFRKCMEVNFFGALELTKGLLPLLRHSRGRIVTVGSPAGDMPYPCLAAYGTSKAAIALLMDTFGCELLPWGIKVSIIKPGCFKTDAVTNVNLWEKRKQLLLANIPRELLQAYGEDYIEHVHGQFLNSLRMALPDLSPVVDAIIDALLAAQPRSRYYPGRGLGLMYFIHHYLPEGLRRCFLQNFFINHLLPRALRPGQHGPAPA
The series can be described thus: Inhibition of mouse 11beta-HSD2.

The target of the next series is Cytochrome P450 2D6 (Homo sapiens, UniProt P10635). The series is described as follows: Inhibition of CYP2D6. It counts as ADME.
Series [8] addresses T1, Nuclear receptor subfamily 1 group I member 2. The series can be described thus: Agonist activity at PXR. It counts as functional.
For another series, the target named is Cytochrome P450 2C9 (Homo sapiens, UniProt P11712). The series is described as follows: Inhibition of CYP2C9. The class given is ADME.
Series [9] is described as follows: Half life in C57BL/6 mouse. The class given is ADME, organism-based. As to conditions: in vivo.
The target of the next series is Cytochrome P450 3A4 (Homo sapiens, UniProt P08684). The series can be described thus: Inhibition of CYP3A4. The class given is ADME.
Series [10] can be described thus: Blood clearance in C57BL/6 mouse. The class given is ADME, organism-based.
Series [11] deals with 11-beta-hydroxysteroid dehydrogenase 1 (Mus musculus, UniProt P50172). The series can be described thus: Inhibition of mouse 11beta-HSD1 expressed in CHO-K1 cells assessed as conversion of [3H]cortisone to [3H]cortisol by scintillation counting. The class given is cell-based.
Series [12] has as its system Mus musculus. The series is described as follows: Inhibition of 11beta-HSD1 in ICR mouse assessed as conversion of [3H]cortisone to [3H]cortisol at 10 mg/kg, po after 1 hr by scintillation counting. It counts as functional.

Sequence of 11-beta-hydroxysteroid dehydrogenase 1 (Homo sapiens, UniProt P28845) (P28845 whole entry): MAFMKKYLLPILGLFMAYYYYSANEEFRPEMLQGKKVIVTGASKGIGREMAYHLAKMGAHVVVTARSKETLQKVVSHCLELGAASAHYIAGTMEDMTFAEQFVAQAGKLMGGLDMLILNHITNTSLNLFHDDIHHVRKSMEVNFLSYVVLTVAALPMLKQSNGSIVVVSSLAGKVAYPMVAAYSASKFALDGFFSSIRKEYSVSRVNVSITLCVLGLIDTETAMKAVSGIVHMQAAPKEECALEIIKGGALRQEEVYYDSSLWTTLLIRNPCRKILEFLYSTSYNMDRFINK
Sequence of 11-beta-hydroxysteroid dehydrogenase 1 (Mus musculus, UniProt P50172) (P50172 whole entry): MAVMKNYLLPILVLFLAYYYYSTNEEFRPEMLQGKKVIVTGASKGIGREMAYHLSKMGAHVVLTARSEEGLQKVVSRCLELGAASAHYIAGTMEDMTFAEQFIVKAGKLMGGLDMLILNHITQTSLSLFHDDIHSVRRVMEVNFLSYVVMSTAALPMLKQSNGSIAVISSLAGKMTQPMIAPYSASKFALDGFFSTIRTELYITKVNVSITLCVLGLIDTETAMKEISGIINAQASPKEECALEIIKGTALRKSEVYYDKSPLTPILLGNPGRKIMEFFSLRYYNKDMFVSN
Sequence of Cytochrome P450 2C9 (P11712 whole entry): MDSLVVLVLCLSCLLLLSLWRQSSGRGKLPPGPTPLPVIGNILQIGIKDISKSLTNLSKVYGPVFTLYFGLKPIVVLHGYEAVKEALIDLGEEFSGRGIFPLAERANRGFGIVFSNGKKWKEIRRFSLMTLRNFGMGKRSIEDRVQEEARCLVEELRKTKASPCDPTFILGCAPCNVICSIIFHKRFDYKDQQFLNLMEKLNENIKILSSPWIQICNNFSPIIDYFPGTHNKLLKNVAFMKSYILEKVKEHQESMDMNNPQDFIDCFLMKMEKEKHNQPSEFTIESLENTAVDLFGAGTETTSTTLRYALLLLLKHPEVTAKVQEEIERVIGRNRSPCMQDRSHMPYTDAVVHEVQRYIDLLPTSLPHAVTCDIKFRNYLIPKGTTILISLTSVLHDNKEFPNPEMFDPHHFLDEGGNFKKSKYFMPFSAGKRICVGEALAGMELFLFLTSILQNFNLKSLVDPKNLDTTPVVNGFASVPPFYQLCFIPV
Sequence of Cytochrome P450 2D6 (P10635 whole entry): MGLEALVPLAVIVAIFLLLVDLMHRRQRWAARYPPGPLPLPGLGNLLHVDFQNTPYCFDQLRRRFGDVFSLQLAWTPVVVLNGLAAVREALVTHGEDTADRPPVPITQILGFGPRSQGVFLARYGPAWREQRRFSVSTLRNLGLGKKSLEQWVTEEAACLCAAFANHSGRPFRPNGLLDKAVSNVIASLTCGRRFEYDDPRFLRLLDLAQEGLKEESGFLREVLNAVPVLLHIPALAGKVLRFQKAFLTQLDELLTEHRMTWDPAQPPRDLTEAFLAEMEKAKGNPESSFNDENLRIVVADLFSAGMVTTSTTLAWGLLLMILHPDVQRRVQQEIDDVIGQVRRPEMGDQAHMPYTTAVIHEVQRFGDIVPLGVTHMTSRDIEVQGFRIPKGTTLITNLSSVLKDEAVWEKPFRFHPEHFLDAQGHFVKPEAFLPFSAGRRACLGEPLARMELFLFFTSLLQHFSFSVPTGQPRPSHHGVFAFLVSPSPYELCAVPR
Sequence of Cytochrome P450 3A4 (P08684 whole entry): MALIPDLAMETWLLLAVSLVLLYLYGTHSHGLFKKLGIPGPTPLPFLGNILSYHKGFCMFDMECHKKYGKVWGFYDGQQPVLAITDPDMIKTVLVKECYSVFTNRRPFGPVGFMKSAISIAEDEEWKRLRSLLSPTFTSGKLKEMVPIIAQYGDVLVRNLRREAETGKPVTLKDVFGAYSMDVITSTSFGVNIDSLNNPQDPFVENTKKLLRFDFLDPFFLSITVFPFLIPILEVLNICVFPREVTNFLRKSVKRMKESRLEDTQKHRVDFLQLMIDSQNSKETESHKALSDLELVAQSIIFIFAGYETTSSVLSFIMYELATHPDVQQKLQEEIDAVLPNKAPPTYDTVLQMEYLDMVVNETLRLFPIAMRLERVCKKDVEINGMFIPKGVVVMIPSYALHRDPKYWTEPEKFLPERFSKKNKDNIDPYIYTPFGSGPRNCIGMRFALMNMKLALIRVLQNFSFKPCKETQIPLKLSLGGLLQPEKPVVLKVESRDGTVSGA

One may read the bioavailability as dose-corrected exposure relative to a reference, in per cent. Usually IC50 stands for the concentration that gives 50% inhibition. The term inhibition in vivo denotes the percentage by which the read-out fell short of the control. The EC50 is the concentration giving half of the maximal effect. Low values mean greater potency, high ones weaker potency. A word on the half-life: it is the time in which the quantity being followed falls by half. Read a low half-life as fast loss. A word on the clearance: it is the rate of elimination divided by the concentration. The low end stands for inefficient removal, the high end for efficient removal. On to `Cn1c(-c2ccc(-c3cnccn3)cc2)nnc1C1(c2ccc(Cl)cc2)CCC1`, for which, in series [1], the bioavailability was determined as 30%. Also, the Activity in series [2] was determined as 23%. The IC50 in series [3] was more than 4 µM; in series [4], 0.0023 µM; in [7] it was more than 4 µM; on Cytochrome P450 2D6, 16 µM; at Cytochrome P450 2C9, 13 µM; against Cytochrome P450 3A4, 10 µM. Besides, in series [11], the IC50 is less than 0.001 µM. In addition, the inhibition in vivo at 10 mg/kg with Mus musculus [5] came out at 79%; in the series with Mus musculus [6], 93%. Moreover, in series [8], the EC50 is more than 30 µM. Further, the half-life in series [9] was 0.7 h. For the same compound, the clearance in [10] worked out at 3.24 L/h/kg.
`Cn1c(-c2ccc(-c3cnccn3)cc2Cl)nnc1C1(c2ccc(Cl)cc2)CC(F)C1` (centres undefined) returned a bioavailability in series [1] of 96%. Besides, the Activity in series [2] was 23%. In addition, the IC50 in series [3] is more than 4 µM; in series [4] it was 0.0055 µM; in series [7], more than 4 µM; at Cytochrome P450 2D6 it was 25 µM; against Cytochrome P450 2C9, 26 µM; at Cytochrome P450 3A4, 36 µM. Also, in [11], the IC50 came to 0.0023 µM. Also, the inhibition in vivo at 10 mg/kg came out at 80% with Mus musculus [5] and 95% with Mus musculus [6]. In series [8], the EC50 was more than 30 µM. The compound also gave a half-life in series [9] of 6.8 h. In addition, the clearance in [10] amounted to 0.3 L/h/kg.
Turning to `C1CCCn2c(nnc2C23CC4CC(CC(C4)C2)C3)CC1`, the IC50 in series [3] is more than 4 µM; in [4] it was 0.0078 µM; in series [7] it was more than 4 µM; in series [11] it was 0.098 µM. Further, the values for the inhibition in vivo at 10 mg/kg with Mus musculus [6] and in the series on Mus musculus [12] were 21% and 31%, respectively.
